In data set [1] the test system is human endothelial cells (HUVECs). The experiment in a line: Cell viability test (CELLTITER-GLO luminescent assay) in HUVECs. The conditions noted are these: various concentrations, 48 hours, FIG. 1A. It is filed as cell-based. The protocol:
ARPE-19 cells (RID: CVCL 0145) and L-Wnt3a cells (RID: CVCL 0635) were acquired from American Type Culture Collection (ATCC) and cultured in a DMEM medium supplemented with 10% fetal bovine serum (FBS), 120 μg/mL penicillin and 200 μg/mL streptomycin. Human umbilical vein endothelial cells (HUVECs, RID: CVCL 2959) were purchased from CEFO (Cell Engineering for Origin) and cultured using an optimized medium (CEFOgro-HUVEC). Wnt3a-CM (Wnt3a-conditioned medium) was prepared using L-Wnt3a cells that secrete the Wnt-3a protein into the medium. First, the cells were cultured for 4 days and the medium was recovered and replaced with a fresh medium. After culturing for 3 days, the medium was recovered. […]
HUVECs were inoculated into a 96-well plate with a transparent black bottom at 5,000 cells per well, incubated overnight, and then treated with a test substances (compound of Example (1) (CGK012) or decursin of Comparative Example (1)) at various concentrations together with a medium (total volume per well: 100 μL). After 48 hours, cell viability was measured using a CELLTITER-GLO® luminescent cell viability assay kit (Promega, G7572) according to the manufacturer's instructions. […] After mixing in an orbital shaker for 2 minutes for cell lysis, stabilization was induced at room temperature for 10 minutes, and then luminescence was measured. […]
A general note: Cellular ATP, detected with luciferase, serves as a proxy for viable cell number.

Data set [2] has as its system vascular endothelial growth factor (VEGF) in human retinal pigment epithelial cells (ARPE-19 cells). The experiment in a line: Western blotting of VEGF level in ARPE-19 cells. Format: cell-based. Particulars: FIG. 1B. The protocol: ARPE-19 cells (RID: CVCL 0145) and L-Wnt3a cells (RID: CVCL 0635) were acquired from American Type Culture Collection (ATCC) and cultured in a DMEM medium supplemented with 10% fetal bovine serum (FBS), 120 μg/mL penicillin and 200 μg/mL streptomycin. Human umbilical vein endothelial cells (HUVECs, RID: CVCL 2959) were purchased from CEFO (Cell Engineering for Origin) and cultured using an optimized medium (CEFOgro-HUVEC). Wnt3a-CM (Wnt3a-conditioned medium) was prepared using L-Wnt3a cells that secrete the Wnt-3a protein into the medium. First, the cells were cultured for 4 days and the medium was recovered and replaced with a fresh medium. After culturing for 3 days, the medium was recovered. The two media were combined and used after passing through a 0.22-μm filter. All the cells were cultured in a cell incubator under the condition of 37° C. and 5% CO2.
Whole cell proteins were obtained using a RIPA buffer. After treating the cells with an appropriate amount of a RIPA buffer supplemented with 1× protease inhibitor, the cells were reacted on ice while vortexing once every 10 minutes. After centrifuging at 13,000 rpm and at 4° C. for 10 minutes and quantifying the obtained supernatant by BRADFORD™ assay, […] of proteins were separated according to molecular weight through electrophoresis. […]
(Immunoblotting shows a protein as a band on a membrane.)

Data set [3] has as its system choroidal neovascularization (CNV)-induced rabbit model. The data set can be described thus: Laser-induced choroidal neovascularization (CNV) rabbit model, fluorescein angiography, retinal fluorescence intensity. Format: in vivo, Chinchilla rabbit. The conditions noted are these: for Fluorescence intensity (% of control group): rabbit CNV, instillation 300 μg/eye 1/day, day 7 (G6, G7). An excerpt: After obtaining 50 male Chinchilla rabbits weighing about 2.5-3.0 kg from DREAMBIO, their health status was checked during a 7-day acclimatization period, and healthy animals were used in the test.
After the acclimatization period, 42 healthy rabbits were selected and a mydriatic agent (MIDRIACIL™ 1% eye drop) was instilled into the right eye. After anesthetizing the animals, laser (ELITE, LUMENIS, USA) was irradiated under the condition of 532 nm, power 150 mW and duration 0.1 sec, and 6 spots were made in about 6 o'clock direction around the optic nerve.
After dividing the test animals into a total of 7 groups, G1 to G7, administration of the test substance was started on the day of the CNV induction using laser with the concentrations described in Table 2. In Table 2, EYLEA™ (Aflibercept) was used as a positive control substance. For intravitreal injection, 40 μL of the positive control substance (EYLEA™) was injected intravitreally into the right eye of the animal in the anesthetized state using a syringe equipped with a 31-gauge needle on the day of the CNV induction. For instillation, after the animal was taken out of the cage and corrected naturally by an assistant, 200 μL of the test substance was instilled into the center of the cornea of the right eye by using a pipette. In the case of “a)”, the instillation was divided into 4 times and each administration was spaced by 5 minutes.
Before the administration of the test substance (0) and on 7, 14, 28, 42 and 56 days after the administration, a mydriatic agent (MIDRIACIL™ 1% eye drop) was instilled into the right of the animal. Then, after anesthetizing the animal and injecting about 1 mL of a 2% fluorescein sodium salt solution via the ear vein, images were taken within about 2 minutes using a fundus camera (TRC-50IX, Topcon, Japan).
Retinal CNV and drug efficacy were confirmed using the retinal fluorescein fundus images. The fluorescein intensity of the irradiation area was analyzed using the ImageJ software (NIH, Bethesda, MD).
For the results of this test, the significance between the test groups was tested using parametric one-way ANOVA assuming the normality of the data. When significance was recognized, a post hoc test was performed using Dunnett's multiple comparison test. Statistical analysis was performed using PRISM 7.04 (GraphPad Software Inc., San Diego, CA, USA), and p<0.05 was considered statically significant.
The test substance of the example or the comparative example was dropped onto the eye of a rabbit wherein choroidal neovascularization (CNV) was induced by laser irradiation, for 7 days, 300 μg per each administration. On day 7 after the start of the test substance administration, the eye was imaged with a fundus camera to compare the effect of the test substance on intraocular vascular leakage and the fluorescence intensity of the retina was analyzed. […] Table 3 compares the relative fluorescence intensity (% of control group) of the irradiation area determined by analyzing the retinal fluorescein angiographic images of the control group (G1), the test group (G6) and the comparison group (G7).
For a rabbit wherein choroidal neovascularization (CNV) was induced by laser irradiation, EYLEA™ was intravitreally injected as a positive control, the eye drop of the example was administered by dropping onto the eye or EYLEA™ and the eye drop of the example were co-administered. […]

The subject of a further data set is ICR mice. The experiment in a line: Acute toxicity, oral, fatality rate at 24 hours. Format: in vivo. The conditions noted are these: 2.0 g/kg, n=5. As for the experimental part: This experiment was conducted to investigate the acute (within 24 hours) toxicity of the compound of the present disclosure and determine its fatality rate when consumed in an excess amount in a short period of time. ICR mice were assigned to a control group (n=5) and a test group (n=5). Nothing was administered to the control group and the compound of Example (1) was orally administered to the test group at a concentration of 2.0 g/kg (about 50 times the amount used in general animal experiments).

The next data set concerns C57BL/6J mice. The experiment in a line: Organ and tissue toxicity (blood GPT, BUN; liver and kidney histology). Format: in vivo. As for the experimental part:
In order to investigate the effect on the organs (tissues) of C57BL/6J mice, blood was taken from the animals of a test group to which the compound of Example (1) was administered and a control group to which only a solvent was administered 8 weeks after the administration, and blood levels of GPT (glutamate-pyruvate transferase) and BUN (blood urea nitrogen) were measured using SELECT™ E (Vital Scientific NV, Netherlands). […] In addition, the liver and kidney were taken from each animal and subjected to histological observation under an optical microscope through a conventional tissue section preparation process.

Where [4] appears, read: G5: CGK012 administered alone, FIG. 6B, 6C.

Turning to `CC1(C)Oc2cc3oc(=O)ccc3cc2C[C@@H]1OC(=O)NC1CCCC1` [CGK012, (7S)-(+)-cyclopentylcarbarmic acid 8,8-dimethyl-2-oxo-6,7-dihydro-2H,8H-pyrano[3,2-g]chromen-7-yl-ester], the “cell viability of human endothelial cells (HUVECs)” value in data set [1] is reported as “significantly inhibited the survival of the HUVECs at high concentrations”. For the same molecule, the “level of VEGF in ARPE-19 cells” value in data set [2] is “remarkably decreased VEGF”. The “difference of retinal fluorescence intensity from the positive control EYLEA administration group (G2)” value in data set [3] (setting [4]) was “no statistically significant difference”. The “level of retinal fluorescence intensity as compared to the induced control group (G1)” value in data set [3] (setting [4]) is on record as “significantly low”. Moreover, the “relative fluorescence intensity (% of control group)” value is reported as 80.877 ± 8.905 % of control group in data set [3] (G5: CGK012 instillation 300 μg/eye 2/day, Day 7); 79.116 ± 7.972 % of control group in data set [3] (G5: CGK012 instillation 300 μg/eye 2/day, Day 14); 79.152 ± 6.642 % of control group in data set [3] (G5: CGK012 instillation 300 μg/eye 2/day, Day 28); 79.137 ± 6.355 % of control group in data set [3] (G5: CGK012 instillation 300 μg/eye 2/day, Day 42); 81.041 ± 10.391 % of control group in data set [3] (G5: CGK012 instillation 300 μg/eye 2/day, Day 56). The “duration of the effect of inhibiting choroidal neovascularization” value in data set [3] (G5: single administration of CGK012 (eye drop, without EYLEA)) is 8 weeks. The “Fluorescence intensity (% of control group)” value in data set [3] was 75.52 ± 3.93 % of control group. The “fatality rate 24 hours after the administration” value in the data set with ICR mice is “all the animals of the control group and the test group survived”. Moreover, in the data set on C57BL/6J mice (8 weeks after the administration, kidney toxicity), the “blood level of BUN (blood urea nitrogen) vs control group” value was “no significant difference was observed”. The “blood level of GPT (glutamate-pyruvate transferase) vs control group” value in the data set with C57BL/6J mice (8 weeks after the administration, liver toxicity) was “no significant difference was observed”. Moreover, the “histological observation of liver and kidney” value in the data set on C57BL/6J mice (optical microscope) is “No unusual abnormality was observed”.
As to `CC(C)=CC(=O)O[C@H]1Cc2cc3ccc(=O)oc3cc2OC1(C)C` [decursin, reference compound], the “cell viability of human endothelial cells (HUVECs)” value in data set [1] is listed as “did not significantly induce the apoptosis of the HUVECs even at high concentrations”. The “level of VEGF in ARPE-19 cells” value in data set [2] is “did not show significant effect on the level of VEGF”. The “Fluorescence intensity (% of control group)” value in data set [3] is 95.66 ± 10.80 % of control group.
On to “Aflibercept [EYLEA™, reference compound]”, for which the “relative fluorescence intensity (% of control group)” value is reported as 78.474 ± 8.452 % of control group in data set [3] (G2: EYLEA intravitreal 1600 μg/eye 1/3 weeks, Day 7); 70.022 ± 7.008 % of control group in data set [3] (G2: EYLEA intravitreal 1600 μg/eye 1/3 weeks, Day 14); 69.348 ± 5.013 % of control group in data set [3] (G2: EYLEA intravitreal 1600 μg/eye 1/3 weeks, Day 28); 74.154 ± 9.129 % of control group in data set [3] (G2: EYLEA intravitreal 1600 μg/eye 1/3 weeks, Day 42); 84.087 ± 9.079 % of control group in data set [3] (G2: EYLEA intravitreal 1600 μg/eye 1/3 weeks, Day 56).
